Laboratory results from patent US4788136A, “Diagnostic immunoassay by solid phase separation for digoxin” (priority 1987, dated 1988).

Experiments:
[1] = test system: anti-digoxin antibodies; experiment: TDx Abbott Digoxin II assay, antigenicity (cross-reactivity) of cardiac glycoside analogs; format: binding; conditions: TDx analyzer, aqueous solutions in TDx dilution buffer, observed assay concentration divided by actual analog concentration times 100
Procedure: (§1) The antigencity of cardiac glycoside analogs was first determined using the TDx@ analyzer and the Abbott Digoxin II assay commercially available from Abbott Laboratories, Abbott Park, Il 60064. Analogs were evaluated as aqueous solutions in TDx dilution buffer. Several analogs were also subsequently evaluated using the new digoxin assay described herein (see generally Example IV) using a ouabain triacetate solid phase prepared in accordance with Example IIB. Analogs evaluated were: [drawing 3] wherein R1 =R2 =R3 =Ac, X=O, Y1, Z1 and Y2, Z2 =a bond connecting the two carbon atoms to which they are attached (A); R1 =R2 =R3 =Ac, X=O, Y1 =OH, Z1 =H, Y2 and Z2 =a bond connecting the two carbon atoms to which they are attached (B); R1 =R2 =R3 =Ac, X=O, Y1 =Y2 =OH, Z1 =Z2 =H (C); and R1 =R2 =R3 =H, X=N, Y1 =Y2 =OH, Z1 =Z2 =H (D). Cross-reactivity was defined as the observed assay concentration divided by the actual analog concentration times 100.

[2] = test system: β-galactosidase-labeled F(ab')2 (anti-digoxin); experiment: New digoxin assay (ouabain triacetate solid phase), cross-reactivity of analogs; format: binding, Rabbit; conditions: new digoxin assay using ouabain triacetate solid phase; observed assay concentration divided by actual analog concentration times 100
Procedure: as §1

[3] = test system: anti-digoxin antibodies; conditions: known compounds for immobilization (background); cited from earlier work
[4] = test system: β-galactosidase-labeled F(ab')2; experiment: Non-competitive assay for digoxin in serum with immobilized ouabain triacetate solid phase (standard curve)
Procedure: The general assay format consists of preincubation of excess β-galactosidase-labeled F(ab')2 (Example II A) with sample such that sample is quantitatively and rapidly bound to form an analyte-β-galactosidase-labeled F(ab')2 conjugate. An aliquot of this mixture is transferred to a vessel containing a ouabain triacetate-albumin-trisacryl solid phase prepared in accordance with procedure of Example II B and having a characteristic density to be easily suspended in solution yet sufficiently dense to rapidly sediment by gravity. The solid phase material rapidly captures the excess unconjugated β-galactosidase-labeled F(ab')2 and sediments. Following the capture reaction and sedimentation an aliguot containing analyte-β-galactosidase-labeled F(ab')2 is transfered to a cuvette for quantitation using a fluorogenic substrate.
Serum solutions containing 0, 0.5, 1.0, 2.0, 3.0 and 5.0 nanograms per milliliter of digoxin were each tested following the same assay protocol described below. A control was also run with zero digoxin and no solid phase material. Fifty microliters of serum sample was mixed with 25 microliters of the β-galactosidase-labeled F(ab')2 (Example II A) and 325 microliters of TDx dilution buffer. The reaction mixture was incubated at 34-35 degrees Celsius for 6 minutes and then a 60 microliter aliquot and 55 microliters of TDx dilution buffer was added to 10 mg of solid phase material (Example II B). The mixture was incubated for 10 minutes with mixing. 400 ul of TDx dilution buffer was then added to the mixture.
The mixture was allowed to rest briefly whereupon it separated into a liquid and solid phase. The β-galactosidase activity of the supernatant was measured by quantitating the production of fluorescein. The measurement was made using 10 micromolar di-(β-D-galactosyl)-fluorescein as substrate in TDx dilution buffer containing 1 mM MgCl2.

SMILES	CROSS-REACTIVITY (%) DIGOXIN II [1]	CROSS-REACTIVITY (%) NEW ASSAY [2]	other results
CC1OC(OC2C(O)CC(OC3C(O)CC(OC4CCC5(C)C(CCC6C5CC(O)C5(C)C(C7=CC(=O)NC7)CCC65O)C4)OC3C)OC2C)CC(O)C1O (centres unmarked) [Digoxin Lactam]	0.41%	–	–
CC(=O)OCC12C(OC(C)=O)CC(OC3OC(C)C(O)C(O)C3O)CC1(O)CCC1C2C(OC(C)=O)CC2(C)C(C3=CC(=O)OC3)CCC12O (centres unmarked) [Ouabain Triacetate (C)]	3.7 × 10^-4%	2.2 × 10^-4%	–
CC(=O)OCC12C(OC(C)=O)CC(OC3OC(C)C(O)C(O)C3O)CC1(O)CCC1C3=CCC(C4=CC(=O)OC4)C3(C)CC(OC(C)=O)C12 (centres unmarked) [Ouabain Triacetate (B)]	1.5 × 10^-3%	–	–
C[C@@H]1O[C@@H](O[C@H]2C[C@@H](O)[C@]3(CO)[C@H]4[C@H](O)C[C@]5(C)[C@@H](C6=CC(=O)OC6)CC[C@]5(O)[C@@H]4CC[C@]3(O)C2)[C@H](O)[C@H](O)[C@H]1O [Ouabain]	2.0 × 10^-2%	1.8 × 10^-3%	affinity for labeled anti digoxin antibody, in words [3]: relatively high affinity
CC1OC(OC2CC(O)C3(CO)C4C(O)CC5(C)C(C6=CC(=O)NC6)CCC5(O)C4CCC3(O)C2)C(O)C(O)C1O (centres unmarked) [Ouabain Lactam (D)]	9.1 × 10^-4%	–	–
C[C@H]1O[C@@H](O[C@H]2[C@@H](O)C[C@H](O[C@H]3[C@@H](O)C[C@H](O[C@H]4CC[C@@]5(C)[C@H](CC[C@@H]6[C@@H]5C[C@@H](O)[C@]5(C)[C@@H](C7=CC(=O)OC7)CC[C@]65O)C4)O[C@@H]3C)O[C@@H]2C)C[C@H](O)[C@@H]1O [Digoxin]	100%	100%	affinity for labeled anti digoxin antibody, in words [3]: relatively high affinity; Fluorescence Measured Rate ([4]; digoxin 0.5 ng/mL in serum): 160; Fluorescence Measured Rate ([4]; digoxin 1.0 ng/mL in serum): 220; Fluorescence Measured Rate ([4]; digoxin 2.0 ng/mL in serum): 448; Fluorescence Measured Rate ([4]; digoxin 3.0 ng/mL in serum): 745; Fluorescence Measured Rate ([4]; digoxin 5.0 ng/mL in serum): 1231
CC(=O)OCC12C(=CCC3C4=CCC(C5=CC(=O)OC5)C4(C)CC(OC(C)=O)C31)CC(OC1OC(C)C(O)C(O)C1O)CC2OC(C)=O (centres unmarked) [Ouabain Triacetate (A)]	1.6 × 10^-3%	–	–
